Source: ChEMBL document CHEMBL4350986, “Triptolide: Medicinal chemistry, chemical biology and clinical progress” (Eur J Med Chem, 2019)
≈ marks a conversion by molar mass, not a printed value.

Assays:
HL-60 [1] = assay: Cytotoxicity against human HL60 cells assessed as decrease in cell viability by MTT assay; type: functional, cell-based
MCF7 [2] = assay: Cytotoxicity against human MCF7 cells assessed as decrease in cell viability by MTT assay; type: functional, cell-based
HeLa [3] = assay: Cytotoxicity against human HeLa cells assessed as decrease in cell viability by MTT assay; type: functional, cell-based
P388 = assay: Cytotoxicity against mouse P388 cells assessed as decrease in cell viability after 72 hrs by MTT assay; type: functional, cell-based; conditions: P388, 72 h
BGC-823 = assay: Cytotoxicity against human BGC823 cells assessed as decrease in cell viability by MTT assay; type: functional, cell-based
MKN-28 = assay: Cytotoxicity against human MKN28 cells assessed as decrease in cell viability after 72 hrs by MTT assay; type: functional, cell-based; conditions: MKN-28, 72 h
MCF7 [4] = assay: Cytotoxicity against human MCF7 cells assessed as decrease in cell viability after 72 hrs by MTT assay; type: functional, cell-based; conditions: MCF7, 72 h
KB = assay: Cytotoxicity against human KB cells assessed as decrease in cell viability by MTT assay; type: functional, cell-based
HL-60 [5] = assay: Cytotoxicity against human HL60 cells assessed as decrease in cell viability after 72 hrs by MTT assay; type: functional, cell-based; conditions: HL-60, 72 h
A549 = assay: Cytotoxicity against human A549 cells assessed as decrease in cell viability after 72 hrs by MTT assay; type: functional, cell-based; conditions: A549, 72 h
[6] = Toxicity in rat ear inflammation model; conditions: in vivo
HL-60 [7] = assay: Cytotoxicity against human HL60 cells assessed as decrease in cell viability; type: functional, cell-based
Jurkat = assay: Cytotoxicity against human Jurkat cells assessed as decrease in cell viability; type: functional, cell-based
HCT-116 = assay: Cytotoxicity against human HCT116 cells assessed as decrease in cell viability; type: functional, cell-based
NIH3T3 = assay: Cytotoxicity against mouse NIH/3T3 cells assessed as decrease in cell viability; type: functional, cell-based
[8] = Cytotoxicity against human OVCAR1 cells assessed as decrease in cell viability; type: functional, cell-based
[9] = Cytotoxicity against human SK-MEL-8 cells assessed as decrease in cell viability; type: functional, cell-based
[10] = Cytotoxicity against human Re-01 cells assessed as decrease in cell viability; type: functional, cell-based
[11] = Cytotoxicity against human Col-06 cells assessed as decrease in cell viability; type: functional, cell-based
[12] = Cytotoxicity against human Bre01 cells assessed as decrease in cell viability; type: functional, cell-based
HeLa [13] = assay: Cytotoxicity against human HeLa cells assessed as decrease in cell viability; type: functional, cell-based
MDCK = assay: Cytotoxicity against MDCK cells assessed as decrease in cell viability; type: functional, cell-based; conditions: Canis lupus familiaris
[14] = Half life of the compound; type: physicochemical

SMILES: CC(C)[C@]12O[C@H]1[C@@H]1O[C@]13[C@]1(O[C@H]1C[C@@]1(O)C4=C(CC[C@]31C)C(=O)OC4)[C@@H]2O
- IC50 (HL-60 [1]): 470 nM
- IC50 (MCF7 [2]): 1050 nM
- IC50 (HeLa [3]): 340 nM
- IC50 (P388): 0.04 to 0.2 nM
- IC50 (BGC-823): 1500 nM
- IC50 (MKN-28): 0.04 to 0.2 nM
- IC50 (MCF7 [4]): 0.04 to 0.2 nM
- IC50 (KB): 300 nM
- IC50 (HL-60 [5]): 0.04 to 0.2 nM
- IC50 (A549): 0.04 to 0.2 nM

SMILES: CC(C)[C@]1(O)[C@H](O)[C@@H]2O[C@]23[C@]2(O[C@H]2C[C@H]2C4=C(CC[C@@]23C)C(=O)OC4)[C@@H]1O
- LD50 [6]: > 500 mg/kg

SMILES: CC(C)C1=C[C@@H]2O[C@@]23[C@@]2(C)CCC4=C(COC4=O)[C@@H]2C[C@@H]2O[C@@]23C1=O
- IC50 (HL-60 [7]): 16000 nM
- IC50 (Jurkat): 31000 nM

SMILES: C[C@]12CCC3=C(COC3=O)[C@@H]1C[C@@H]1O[C@@]13C(=O)[C@@]1(CCCC(=O)O)O[C@H]1[C@@H]1O[C@]123
- IC50 (HCT-116): 560 nM

SMILES: C[C@@H]([C@@H]1CO1)[C@]12O[C@H]1[C@@H]1O[C@@]13[C@@]1(C)CCC4=C(COC4=O)[C@@H]1C[C@@H]1O[C@@]13C2=O
- IC50 (NIH3T3): 40 nM

SMILES: C[C@]12CCC3=C(COC3=O)[C@@H]1C[C@@H]1O[C@@]13[C@H](O)[C@@]1(CCO)O[C@H]1[C@@H]1O[C@@]132
- IC50 (HCT-116): 74.7 nM

SMILES: CC(C)[C@]12O[C@H]1[C@@H]1O[C@]13[C@]1(O[C@H]1C[C@H]1C4=C(CC[C@@]13C)C(=O)O[C@H]4O)[C@@H]2O
- IC50 (HL-60 [1]): 52600 nM
- IC50 (KB): 46500 nM

SMILES: CC(C)[C@]12O[C@H]1[C@@H]1O[C@@]13[C@@]1(C)[C@H](O)CC4=C(COC4=O)[C@@H]1C[C@@H]1O[C@@]13[C@@H]2O
- IC50 (HL-60 [1]): 70 nM
- IC50 (MCF7 [2]): 870 nM
- IC50 (HeLa [3]): 320 nM
- IC50 (BGC-823): 7650 nM
- IC50 (KB): 120 nM

SMILES: C[C@]12CCC3=C(COC3=O)[C@@H]1C[C@@H]1O[C@@]13C(=O)[C@H]1O[C@H]1[C@@H]1O[C@]123
- IC50 (HCT-116): 537 nM

SMILES: CC(C)[C@]12O[C@H]1[C@@H]1O[C@]13[C@]1(O[C@H]1C[C@H]1C4=C(CC[C@@]13C)C(=O)OC4)[C@@H]2NC=O
- IC50 (HCT-116): 354 nM

SMILES: C[C@]12CCC3=C(COC3=O)[C@@H]1C[C@@H]1O[C@@]13[C@@H](O)[C@@]1(CCO)O[C@H]1[C@@H]1O[C@@]132
- IC50 (HCT-116): 70.7 nM

SMILES: CC(C)[C@]1(O)[C@H](N=C=S)[C@@H]2O[C@]23[C@]2(O[C@H]2C[C@H]2C4=C(CC[C@@]23C)C(=O)OC4)[C@@H]1O
- IC50 [8]: 0.02 µg/mL (≈ 0.0477 µM)
- IC50 [9]: 0.09 µg/mL (≈ 0.215 µM)
- IC50 [10]: 0.06 µg/mL (≈ 0.143 µM)
- IC50 [11]: 0.03 µg/mL (≈ 0.0715 µM)
- IC50 [12]: 0.055 µg/mL (≈ 0.131 µM)

SMILES: CC[C@@H](CO)[C@]12O[C@H]1[C@@H]1O[C@@]13[C@@]1(C)CCC4=C(COC4=O)[C@@H]1C[C@@H]1O[C@@]13C2=O
- IC50 (HeLa [13]): 2 nM
- IC50 (MDCK): 270 nM
- IC50 (NIH3T3): 10 nM
- IC50 (Jurkat): < 40 nM

SMILES: CCCNC(=O)OCCC[C@]12O[C@H]1[C@@H]1O[C@@]13[C@@]1(C)CCC4=C(COC4=O)[C@@H]1C[C@@H]1O[C@@]13C2=O
- IC50 (HCT-116): 8.4 nM

SMILES: CC(C)C1=C[C@H]2O[C@]23[C@@]2(C)CCC4=C(COC4=O)[C@@H]2C[C@@H]2O[C@@]23C1=O
- IC50 (HL-60 [7]): 16000 nM
- IC50 (Jurkat): 16000 nM

SMILES: CC(C)[C@]12O[C@H]1[C@@H]1O[C@]13[C@]1(O[C@H]1C[C@H]1C4=C(CC[C@@]13C)C(=O)OC4)[C@@H]2N
- IC50 (HCT-116): 772 nM

SMILES: CC(C)[C@]12O[C@H]1[C@@H]1O[C@]13[C@]1(O[C@H]1C[C@H]1C4=C(CC[C@@]13C)C(=O)OC4)[C@@H]2OCOP(=O)([O-])[O-].[Na+].[Na+] [MINNELIDE]
- half-life [14]: 2 min

SMILES: CC(C)[C@]12O[C@H]1[C@@H]1O[C@]13[C@]1(O[C@H]1C[C@H]1C4=C(CC[C@@]13C)C(=O)OC4)[C@@H]2O [TRIPTOLIDE]
- IC50 [8]: 0.006 µg/mL (≈ 0.0166 µM)
- IC50 (HeLa [13]): 87 nM
- IC50 [9]: 0.02 µg/mL (≈ 0.0555 µM)
- IC50 [10]: 0.03 µg/mL (≈ 0.0832 µM)
- IC50 (MDCK): 1200 nM
- IC50 [11]: 0.02 µg/mL (≈ 0.0555 µM)
- IC50 [12]: 0.04 µg/mL (≈ 0.111 µM)
- IC50 (NIH3T3): 50 nM
- IC50 (Jurkat): 140 nM
- IC50 (HCT-116): 4.7 nM
